This is an account of results in PMC4335872, “Pharmacokinetic-Pharmacodynamic Analysis of Spiroindolone Analogs and KAE609 in a Murine Malaria Model” (Antimicrobial Agents and Chemotherapy, 2015).

Usually IC50 stands for the concentration needed to halve the response being measured. The term AUC(0-inf) denotes total exposure, with the tail of the curve extrapolated. Low readings indicate less exposure, high ones more exposure. As a reminder, the Cmax is the highest concentration seen after dosing. One may read the Km as the concentration of substrate that gives half-maximal velocity.

“And” between values parts separate entries of the source, which are not always exact repeats. Equal values may be shown once. Read-outs that look alike come from different tables or passages of the source.

The subject of one data set is P. falciparum NF54. Description: In vitro [3H]hypoxanthine incorporation assay, P. falciparum NF54. To be noted: for IC50: 16 h + 8 h incubation, read-out: IC50 (mean ± SD) for P. falciparum NF54 (n = 3). The data set is classed as cell-based, Plasmodium falciparum. Here is the method:
Human erythrocytes served as the host cells. In vitro antimalarial activity was measured using the [^3H]hypoxanthine incorporation assay ([36]) with strain NF54 of P. falciparum (obtained from Hoffmann-LaRoche Ltd.). The compounds were dissolved in dimethyl sulfoxide (DMSO) at a concentration of 10 mM, diluted in hypoxanthine-free culture medium, and titrated in duplicate over a 64-fold range in 96-well plates. […] The parasites were harvested onto glass fiber filters, and radioactivity was measured using a BetaPlate liquid scintillation counter (Wallac, Zurich, Switzerland). All assays were repeated at least three times. The results were recorded and expressed as a percentage of the untreated controls. […] In addition, for the PK-PD analysis of KAE609, an IC99 value was determined by transforming the data from a scintillation counter (Anscombe transformation) to account for Poissonian measurement error. […] Each of the three replicates was performed on a distinct 96-well plate. This has been accounted for in the fitting procedure by means of a Bayesian hierarchical model. The software used for parameter inference was Stan ([37]).

Data set [1] concerns P. berghei GFP ANKA PbGFPCON. Description: In vitro (ex vivo) P. berghei maturation assay. The format is cell-based, Plasmodium berghei. Here is the method: For the in vitro (ex vivo) P. berghei maturation assays ([38]), heparinized blood from infected mice (P. berghei GFP ANKA malaria strain PbGFPCON, a donation from A. P. Waters and C. J. Janse, Leiden University, Leiden, the Netherlands) ([39]) was washed with 9 ml of hypoxanthine-free culture medium and diluted with hypoxanthine-free culture medium and red blood cells (RBCs) from uninfected mice to a hematocrit of 5% and a parasitemia of 0.3%. Serial compound dilutions were prepared in DMSO and distributed as described above. The infected erythrocytes (0.3% final parasitemia and 2.5% final hematocrit) were added into the wells. After the plates were incubated for 16 h, 0.25 μCi of [^3H]hypoxanthine was added per well, and the plates were incubated for an additional 8 h. The parasites were harvested, and the in vitro (ex vivo) P. berghei IC50, IC90, and IC99 values were determined as described above.

A short description of data set [2]: Oral PK and PK modeling of KAE609 in NMRI mice. The format is in vivo, female NMRI mice. To be noted: for AUC(0-inf) / Cmax: NMRI, 5.3 mg/kg, single oral dose 5.3 mg/kg. Here is the method: For the in vivo PK studies, female NMRI mice (specific pathogen free) were obtained from Janvier, Le Genest-Saint-Isle, France. To investigate the influence of the disease status on the pharmacokinetics, a single oral dose (5.3 mg/kg) of KAE609 was given to both the infected and uninfected NMRI mice, and the PK parameters were determined. The infected mice were dosed at 24 h postinfection. The formulation, sampling times (0.25, 0.5, 1, 2, 4, 8, 24, and 48 h postdose), extraction, and analysis were similar to those in the method described above.
Population PK modeling of the concentration-time data of KAE609 in mice was performed using naive pooling without intersubject variability using NONMEM version VI 2.0. A two-compartment pharmacokinetic model with first-order absorption and nonlinear elimination was built to fit the concentration-time data of KAE609 generated in (infected and healthy) NMRI mice at 5.3 mg/kg. In the model, clearance (CL) was described by equation 2, where Cp is compound plasma concentration, the maximum metabolic rate (Vmax)/Km ratio is the maximal clearance achievable when Cp is ≪Km, and Km corresponds to the compound concentration at which the clearance reached 50% of the Vmax/Km. The primary model parameters derived were plasma clearance (CL) (in liters/h/kg), intercompartmental clearance (Q) (in liters/h/kg), central and peripheral volume of distribution (Vc and Vp, respectively) (in liters/kg), and the absorption rate constant (Ka) (in h^−1). The diagnostic plots were analyzed for closeness to and randomness along the line of identity on the observed versus predicted concentration plot, as well as randomness along the weighted residual zero line on the predicted concentration or time. […] Based on the estimated primary model parameters (Vmax, Km, Vc, Vp, Q, and Ka), the plasma concentration-time profiles and secondary pharmacokinetic parameters, such as Cmax, AUC at different doses, and dosing regimens, were simulated using the Berkeley Madonna software (version 8.0.1) (Berkeley Madonna, University of California, Berkeley, CA. 2 CL=Vmax/(Km+Cp)

In data set [3] the test system is P. vivax and P. falciparum. To be noted: cited from earlier work.
Data set [4] is described as follows: Parallel artificial membrane permeability assay (PAMPA). The format is in vitro ADME. To be noted: % fraction absorbed. An excerpt: (§1) page 5: Running title: PreclinicalPK -PD of antimalarials 73 to high through put form at using in- house standard assa y protocols that are described in the 74 literature. 75 (a)HT-Equilibrium solubilit y at pH 6.8( 1); (b)Parallel Artificial Membrane P ermeability Assa y 76 expressed in % fraction absorbed (FA) ( 2,3 ); (c)Apparent permeability from apical to […] 78 tested; (d)intrinsic clearance in mouse liver micro somes ex pressed as µ L/ min/mg protein, in 79 the presen ce of liver enzym es ( 6); (e)Mous e plasm a protein binding using rapid equilibrium […] 81 82 83 84 85 86 87 88 89 90 91 92 93 94 95 96 97 98 5
Background: PAMPA measures passive passage across an artificial lipid membrane.

In a further data set the test system is Caco-2 cells. The data set can be described thus: Caco-2 permeability. The format is in vitro ADME. The note with it: apical to basolateral.
From the text: as §1

The mark [5] stands for this setting: female, mouse, plasma, po, infected NMRI mice.
Where [6] appears, read: female, mouse, plasma, po, uninfected NMRI mice.
[7] abbreviates: two-compartment model, NMRI mice 5.3 mg/kg p.o.
The mark [8] stands for this setting: patients, 30 mg daily for 3 days.
[9] abbreviates: 16 h + 8 h incubation, read-out: IC50 (mean ± SD) for P. berghei GFP ANKA PbGFPCON (n = 3).

`C[C@H]1Cc2c([nH]c3cc(Cl)c(F)cc23)[C@@]2(N1)C(=O)Nc1ccc(Cl)cc12` [(+)-7 (KAE609)]: the “Threshold (TRE), 2 × P. falciparum IC99” value with P. falciparum NF54 was 1 ng/mL. In addition, the IC50 in the data set with P. falciparum NF54 (Plasmodium falciparum, NF54) worked out at 1.2 ± 0.2 nM. For the same compound, the “Threshold (TRE), 2× the P. berghei IC99” value in data set [1] is 123 nM and 48 ng/ml. In addition, the IC50 in data set [1] (Plasmodium berghei, read-out: IC50 against P. berghei in vitro) was found to be 0.01 µg/mL. In addition, in data set [1] (Plasmodium berghei, 16 h + 8 h incubation, read-out: IC50 (mean ± SD) for P. berghei GFP ANKA PbGFPCON (n = 3)), the IC50 was 26 ± 14 nM. Also, in data set [1] (four-parametric logistic fit, Bayesian hierarchical model), the “IC99 in the ex vivo P. berghei maturation assay” value was 61.6 nM. The “Fold higher Cmax and exposure in NMRI mice than in CD-1 mice” value in data set [2] (comparable oral dose (5 mg/kg)) is listed as 4 fold. Moreover, in data set [2] (setting [5]), the AUC(0-inf) is 12600 ng·h/mL and the concentration peaked (Cmax) at 960 ng/mL. In data set [2] (setting [6]), this compound yielded an AUC(0-inf) of 13200 ng·h/mL and a Cmax of 1010 ng/mL. In addition, the Km in data set [2] (female, mouse, plasma, po, two-compartment model, nonlinear elimination, NMRI mice 5.3 mg/kg p.o.) was found to be 0.0341 µg/mL. The “Difference in PK profiles between infected and uninfected NMRI mice” value in data set [2] (oral 5.3 mg/kg) was “No significant difference”. In data set [2] (setting [7]), the “Ka (absorption rate constant)” value was 1.78 h⁻¹, the “Q (intercompartmental clearance)” value was 10.2 mL/min/kg, the “Vc (central volume of distribution)” value was 4.4 L/kg and the “Vp (peripheral volume of distribution)” value was determined as 5.1 L/kg. The Vmax in data set [2] (two-compartment model, nonlinear elimination, NMRI mice 5.3 mg/kg p.o.) was determined as 143 µg/h/kg. The Clinical outcome in data set [3] (3-day dosing regimen of 30 mg daily, P. vivax and P. falciparum malaria patients) was “clearing parasitemia”. Also, in data set [3] (setting [8]), the “AUC (average of two cohorts)” value is 14,300 ng · h/ml and the “Cmax (average of two cohorts)” value was 855 ng/mL.

On to `C[C@@H]1Cc2c([nH]c3cc(F)c(F)cc23)[C@]2(N1)C(=O)Nc1ccc(Cl)cc12` [(−)-6], for which, in the data set on P. falciparum NF54, the “In vitro activity against P. falciparum” value was “submicromolar” and the IC50 was determined as 105 ± 20 nM. In addition, the half-inhibitory concentration (IC50) in data set [1] (setting [9]) was 2850 nM. Besides, the “PAMPA %FA” value in data set [4] turned out to be 97%. In the data set on Caco-2 cells, the “Caco-2 Papp (A-B)” value is 4.8 10-6 cm/sec.

As for `C[C@H]1Cc2c([nH]c3cc(F)c(F)cc23)[C@@]2(N1)C(=O)Nc1ccc(Cl)cc12` [(+)-6], the IC50 in the data set with P. falciparum NF54 amounted to 0.33 ± 0.06 nM; in data set [1] (setting [9]), 7.5 ± 2.5 nM. For the same compound, the “Caco-2 Papp (A-B)” value in the data set with Caco-2 cells is 5.55 10-6 cm/sec.

Turning to `C[C@H]1Cc2c([nH]c3ccc(Cl)cc23)[C@@]2(N1)C(=O)Nc1ccc(Cl)cc12` [(+)-2], the 50% inhibitory concentration (IC50) came to 5.6 ± 0.9 nM in the data set with P. falciparum NF54 and 75 ± 32 nM in data set [1] (setting [9]).

With `C[C@H]1Cc2c([nH]c3cc(Cl)ccc23)[C@@]2(N1)C(=O)Nc1ccc(Cl)cc12` [(+)-3], the IC50 in the data set on P. falciparum NF54 stood at 5.6 ± 0.7 nM; in data set [1] (setting [9]) it was 140 ± 54 nM. Also, the “Caco-2 Papp (A-B)” value in the data set with Caco-2 cells was 41.7 10-6 cm/sec.

Turning to `C[C@H]1Cc2c([nH]c3ccc(F)cc23)[C@@]2(N1)C(=O)Nc1ccc(Cl)cc12` [(+)-4], the figures for the IC50 (in the data set with P. falciparum NF54; in data set [1] (setting [9])) were 5.9 ± 0.9 nM and 104 ± 53 nM, respectively. Also, the “PAMPA %FA” value in data set [4] came out at 97%. The “Caco-2 Papp (A-B)” value in the data set with Caco-2 cells is 7.66 10-6 cm/sec.

On to `C[C@@H]1Cc2c([nH]c3cc(Cl)c(F)cc23)[C@]2(N1)C(=O)Nc1ccc(Cl)cc12` [(−)-7], for which, in the data set on P. falciparum NF54, the “In vitro activity against P. falciparum” value is recorded as “submicromolar” and the 50% inhibitory concentration (IC50) stood at 210 ± 19 nM. The IC50 in data set [1] (setting [9]) was 4910 nM. The “Caco-2 Papp (A-B)” value in the data set with Caco-2 cells was 1.73 10-6 cm/sec.

As for `C[C@H]1Cc2c([nH]c3cc(F)ccc23)[C@@]2(N1)C(=O)Nc1ccc(Cl)cc12` [(+)-5], the IC50 came to 4.3 ± 0.4 nM in the data set on P. falciparum NF54 and 88 ± 26 nM in data set [1] (setting [9]). Besides, in the data set on Caco-2 cells, the “Caco-2 Papp (A-B)” value is 4.33 10-6 cm/sec.
